In ChEMBL document CHEMBL1201862, “PubChem BioAssay data set” (2004):
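Briefly, cells in 96-well plates were exposed to five compound concentrations for 48 h, and endpoints were estimated by linear interpolation. Here, GI50 denotes the concentration required for 50% inhibition of growth.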 Calls of active or inactive are those of the source. Rule as the data show it: active = GI50 up to about 1.1 µM and inactive = higher.

Assays:
Assay in all cases: DTP human tumour cell line panel, 48 h
SNB-75 = tested on: SNB-75
NCI-H23 = tested on: NCI-H23
HOP-92 = tested on: HOP-92
K562 = tested on: K562
SNB-19 = tested on: SNB-19
UACC-257 = tested on: UACC-257
OVCAR-3 = tested on: OVCAR-3
A549 = tested on: A549
IGROV-1 = tested on: IGROV-1
A498 = tested on: A498
SN12C = tested on: SN12C
SK-MEL-5 = tested on: SK-MEL-5
OVCAR-8 = tested on: OVCAR-8
CAKI-1 = tested on: CAKI-1
HCT-116 = tested on: HCT-116
SK-OV-3 = tested on: SK-OV-3
NCI-H226 = tested on: NCI-H226
SF-539 = tested on: SF-539

Measured: GI50

CCCCSC(=CC(=O)c1cccc(C(=O)C=C(SCCCC)SCCCC)n1)SCCCC
inactive: SNB-75 88.9 µM | NCI-H23 > 100 µM | HOP-92 > 100 µM | K562 > 100 µM | SNB-19 > 100 µM | UACC-257 > 100 µM | OVCAR-3 > 100 µM | A549 > 100 µM | IGROV-1 > 100 µM | A498 > 100 µM | SN12C > 100 µM | SK-MEL-5 > 100 µM | OVCAR-8 > 100 µM | CAKI-1 > 100 µM | HCT-116 > 100 µM | SK-OV-3 > 100 µM | NCI-H226 > 100 µM | SF-539 > 100 µM

CC1=NN(C(=O)c2ccc([N+](=O)[O-])cc2)C(=O)C1/N=N/c1ccccc1C(=O)O (stereo unspecified)
inactive: SNB-75 51.2 µM | NCI-H23 > 100 µM | HOP-92 45 µM | K562 71.3 µM | SNB-19 > 100 µM | UACC-257 > 100 µM | OVCAR-3 > 100 µM | A549 > 100 µM | IGROV-1 > 100 µM | A498 > 100 µM | SN12C > 100 µM | SK-MEL-5 > 100 µM | OVCAR-8 > 100 µM | CAKI-1 > 100 µM | HCT-116 > 100 µM | SK-OV-3 53.6 µM | NCI-H226 32.1 µM | SF-539 > 100 µM

Cc1nc(-n2nc(-c3ccccc3)cc2-c2ccccc2)sc1C(/C=C/c1ccc([N+](=O)[O-])cc1)=N/NC(N)=S
inactive: SNB-75 20.8 µM | NCI-H23 27.8 µM | HOP-92 25.1 µM | K562 21.6 µM | SNB-19 > 100 µM | UACC-257 78.3 µM | OVCAR-3 38.2 µM | A549 97.3 µM | IGROV-1 35.2 µM | A498 > 100 µM | SN12C > 100 µM | SK-MEL-5 28.8 µM | OVCAR-8 39.8 µM | CAKI-1 60.3 µM | HCT-116 15.8 µM | SK-OV-3 73.5 µM | NCI-H226 22.8 µM | SF-539 28 µM

CN(/N=C\c1ccnc2ccccc12)c1ccc([N+](=O)[O-])cc1
inactive: SNB-75 > 100 µM | NCI-H23 > 100 µM | HOP-92 > 100 µM | K562 25.3 µM | SNB-19 > 100 µM | UACC-257 > 100 µM | OVCAR-3 > 100 µM | A549 > 100 µM | IGROV-1 > 100 µM | A498 > 100 µM | SN12C > 100 µM | SK-MEL-5 53.8 µM | OVCAR-8 95.7 µM | CAKI-1 > 100 µM | HCT-116 11.6 µM | SK-OV-3 > 100 µM | NCI-H226 > 100 µM | SF-539 27 µM

O=C(CC(=O)N1N=C(c2ccccc2)C(/N=N/c2ccc(C(=O)O)cc2)C1=O)Nc1ccc(F)cc1 (stereo unspecified)
inactive: SNB-75 1.51 µM | NCI-H23 23.4 µM | HOP-92 50.8 µM | K562 18.9 µM | SNB-19 36.4 µM | UACC-257 58.9 µM | OVCAR-3 14.3 µM | A549 39.2 µM | IGROV-1 22.5 µM | A498 10.6 µM | SN12C 38.9 µM | SK-MEL-5 16.7 µM | OVCAR-8 40.8 µM | CAKI-1 7.55 µM | HCT-116 12.2 µM | SK-OV-3 12.2 µM | NCI-H226 6.15 µM | SF-539 13.4 µM

Cc1cc(-c2ccccc2)nc(Nc2cc3ccccc3[nH]2)n1
inactive: NCI-H23 > 100 µM | HOP-92 22.2 µM | K562 > 100 µM | SNB-19 > 100 µM | UACC-257 > 100 µM | OVCAR-3 > 100 µM | A549 > 100 µM | IGROV-1 > 100 µM | A498 > 100 µM | SN12C > 100 µM | SK-MEL-5 > 100 µM | OVCAR-8 > 100 µM | CAKI-1 > 100 µM | HCT-116 > 100 µM | SK-OV-3 > 100 µM | NCI-H226 > 100 µM | SF-539 > 100 µM

O=CN/C=C/c1ccccc1
inactive: SNB-75 > 100 µM | NCI-H23 > 100 µM | HOP-92 > 100 µM | K562 > 31.6 µM | SNB-19 > 100 µM | UACC-257 > 100 µM | OVCAR-3 > 100 µM | A549 > 100 µM | IGROV-1 > 100 µM | A498 > 100 µM | SN12C > 100 µM | SK-MEL-5 > 100 µM | OVCAR-8 > 100 µM | CAKI-1 > 100 µM | HCT-116 > 100 µM | SK-OV-3 > 100 µM | NCI-H226 > 100 µM | SF-539 > 100 µM

O=C(O/N=C1/CCC/C1=C\c1ccccc1)c1ccc(Cl)cc1
inactive: SNB-75 21.7 µM | NCI-H23 50.8 µM | HOP-92 64.3 µM | K562 > 94.2 µM | SNB-19 > 100 µM | UACC-257 > 100 µM | OVCAR-3 36 µM | A549 64 µM | IGROV-1 > 46.5 µM | A498 > 60.4 µM | SN12C > 58.6 µM | SK-MEL-5 > 100 µM | OVCAR-8 > 71.6 µM | CAKI-1 > 52.1 µM | HCT-116 > 100 µM | SK-OV-3 > 70.3 µM | NCI-H226 > 95.7 µM | SF-539 25.2 µM

O=c1nc(-c2ccccc2)c2c3c(cccn13)CCC2
inactive: SNB-75 21.8 µM | NCI-H23 > 100 µM | HOP-92 > 100 µM | K562 > 100 µM | SNB-19 > 100 µM | UACC-257 > 100 µM | OVCAR-3 > 100 µM | A549 > 100 µM | IGROV-1 > 100 µM | A498 92 µM | SN12C > 100 µM | SK-MEL-5 > 100 µM | OVCAR-8 > 100 µM | CAKI-1 > 100 µM | HCT-116 > 100 µM | SK-OV-3 > 100 µM | NCI-H226 54 µM | SF-539 > 100 µM

COc1cc(C(C)O)c[n+](Cc2ccccc2)c1 (stereo unspecified)
inactive: SNB-75 > 100 µM | NCI-H23 > 100 µM | HOP-92 > 100 µM | K562 > 100 µM | SNB-19 > 100 µM | UACC-257 > 100 µM | OVCAR-3 > 100 µM | A549 > 100 µM | IGROV-1 > 100 µM | A498 > 100 µM | SN12C > 40.5 µM | SK-MEL-5 > 100 µM | OVCAR-8 > 31.6 µM | CAKI-1 > 100 µM | HCT-116 > 100 µM | SK-OV-3 > 100 µM | NCI-H226 > 100 µM | SF-539 > 100 µM

Oc1ncnc2c1nnn2CCCn1nnc2c(O)ncnc21
inactive: NCI-H23 > 100 µM | HOP-92 > 100 µM | K562 > 100 µM | SNB-19 > 100 µM | UACC-257 > 100 µM | OVCAR-3 > 100 µM | A549 > 100 µM | IGROV-1 > 100 µM | A498 > 100 µM | SN12C > 100 µM | SK-MEL-5 > 100 µM | OVCAR-8 > 100 µM | CAKI-1 > 100 µM | HCT-116 > 100 µM | SK-OV-3 > 100 µM | NCI-H226 > 100 µM | SF-539 > 100 µM

COC(=O)c1c(C(=O)OC)c(-c2ccccc2)n(-c2ccccc2)c(=O)c1-c1ccccc1
inactive: SNB-75 27.2 µM | NCI-H23 72.8 µM | HOP-92 24.3 µM | K562 > 100 µM | SNB-19 67.9 µM | UACC-257 71.8 µM | OVCAR-3 51.8 µM | A549 80.4 µM | IGROV-1 > 100 µM | A498 > 100 µM | SN12C > 100 µM | SK-MEL-5 > 100 µM | OVCAR-8 51.4 µM | CAKI-1 51.2 µM | HCT-116 58.7 µM | SK-OV-3 53.5 µM | NCI-H226 > 100 µM | SF-539 17.7 µM

COc1ccc(Cc2cc3c(cc2OCC(=O)O)OCO3)cc1
inactive: NCI-H23 > 100 µM | HOP-92 > 100 µM | K562 > 100 µM | SNB-19 > 100 µM | UACC-257 > 100 µM | OVCAR-3 > 100 µM | A549 > 100 µM | IGROV-1 > 100 µM | A498 > 100 µM | SN12C > 100 µM | SK-MEL-5 > 100 µM | OVCAR-8 > 100 µM | CAKI-1 > 100 µM | HCT-116 > 100 µM | SK-OV-3 > 100 µM | SF-539 > 100 µM

O=C(CC1(O)C(=O)Nc2ccccc21)c1ccc(O)cc1 (stereo unspecified)
inactive: SNB-75 69 µM | NCI-H23 > 100 µM | HOP-92 > 100 µM | K562 > 100 µM | SNB-19 > 100 µM | UACC-257 > 100 µM | OVCAR-3 > 100 µM | A549 > 100 µM | IGROV-1 > 100 µM | A498 > 100 µM | SN12C > 100 µM | SK-MEL-5 > 100 µM | CAKI-1 > 100 µM | HCT-116 > 100 µM | SK-OV-3 > 100 µM | NCI-H226 > 100 µM | SF-539 > 100 µM

C/C=C1/CCC2c3[nH]c4ccccc4c3CCN2C1 (stereo unspecified)
inactive: SNB-75 66.4 µM | NCI-H23 > 100 µM | HOP-92 24.2 µM | K562 32 µM | SNB-19 > 100 µM | UACC-257 64.9 µM | OVCAR-3 > 100 µM | A549 > 100 µM | IGROV-1 > 100 µM | A498 > 100 µM | SN12C > 100 µM | SK-MEL-5 37.2 µM | OVCAR-8 > 100 µM | CAKI-1 37.2 µM | HCT-116 66.5 µM | SK-OV-3 > 100 µM | NCI-H226 57.5 µM | SF-539 > 100 µM

CN1c2ccccc2NC(CC(=O)O)C2CC=CN21 (stereo unspecified)
inactive: SNB-75 > 100 µM | NCI-H23 > 100 µM | HOP-92 > 100 µM | K562 > 100 µM | SNB-19 > 100 µM | UACC-257 > 100 µM | OVCAR-3 > 100 µM | A549 > 100 µM | IGROV-1 > 100 µM | A498 > 100 µM | SN12C > 100 µM | SK-MEL-5 > 100 µM | OVCAR-8 > 100 µM | CAKI-1 > 100 µM | SK-OV-3 > 100 µM | SF-539 > 100 µM
